# Experimental data published in patent US20240391862A1, “(1,4,5-TRISUBSTITUTED-1H-PYRAZOL-3-YL)OXY-2-ALKOXY ALKYL ACIDS AND THEIR DERIVATIVES, THEIR SALTS AND THEIR USE AS HERBICIDAL AGENTS” (Bayer AKtiengesellschaft, priority 2021, published 2024).
# How the values were obtained:
# [1] = system: VERPE; assay: Post-emergence herbicidal effect, greenhouse pot test; assay type: in vivo, Veronica persica; settings: for pest or weed control at 80 g/ha / pest or weed control at 320 g/ha: Veronica persica, 504 h, read-out: Post-emergence effect against VERPE in %
# Outline: (§1)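 Weeds sown in sandy loam, greenhouse-grown 2–3 weeks, then sprayed at one-leaf stage with WP or EC formulations in water plus 0.5% additive at 600 l/ha. Rates 20 to 320 g/ha. Visual rating after about 3 weeks versus untreated controls (100% = plants dead, 0% = like control).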
# [2] = system: SETVI; assay: as above; assay type: in vivo, Setaria viridis
# Outline: as §1
# [3] = system: POLCO; assay: as above; assay type: in vivo, Fallopia convolvulus
# Outline: as §1
# [4] = system: VIOTR; assay: as above; assay type: in vivo, Viola tricolor; settings: for pest or weed control at 20 g/ha / pest or weed control at 80 g/ha / pest or weed control at 320 g/ha: Viola tricolor, 504 h, read-out: Post-emergence effect against VIOTR in %
# Outline: as §1
# [5] = system: LOLRI; assay: as above; assay type: in vivo, Lolium rigidum; settings: for pest or weed control at 80 g/ha / pest or weed control at 320 g/ha: Lolium rigidum, 504 h, read-out: Post-emergence effect against LOLRI in %
# Outline: as §1
# [6] = system: KCHSC; assay: as above; assay type: in vivo
# Outline: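 Visual rating of activity against untreated plants (100% = plants died, 0% = no effect), done about 3 weeks after treatment. Compounds applied at 20–320 g/ha as aqueous spray (600 l/ha, 0.5% additive) from WP or EC formulations onto one-leaf-stage plants grown in sandy loam under greenhouse conditions.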
# [7] = system: ALOMY; assay: as above; assay type: in vivo, Alopecurus myosuroides
# Outline: as §1
# [8] = system: ECHCG; assay: as above; assay type: in vivo, Echinochloa crus-galli; settings: for pest or weed control at 80 g/ha / pest or weed control at 320 g/ha: read-out: Post-emergence effect against ECHCG in %
# Outline: as §1
# [9] = system: AVEFA; assay: as above; assay type: in vivo, Avena fatua; settings: visual rating about 3 weeks after treatment; for pest or weed control at 20 g/ha / pest or weed control at 80 g/ha / pest or weed control at 320 g/ha: Avena fatua, 504 h, read-out: Post-emergence effect against AVEFA
# Outline: as §1
# [10] = system: DIGSA; assay: as above; assay type: in vivo, Digitaria sanguinalis; settings: 320 g/ha, visual rating about 3 weeks after treatment; for pest or weed control at 320 g/ha: Digitaria sanguinalis, 504 h, read-out: Post-emergence effect against DIGSA
# Outline: as §1
# [11] = system: PHBPU; assay: as above; assay type: in vivo, Ipomoea purpurea
# Outline: as §1
# [12] = system: ABUTH; assay: as above; assay type: in vivo, Abutilon theophrasti; settings: visual rating about 3 weeks after treatment
# Outline: as §1
# [13] = system: MATIN; assay: as above; assay type: in vivo, Tripleurospermum inodorum
# Outline: as §1
# [14] = system: ZEAMX; assay: Post-emergence herbicidal effect and crop plant compatibility, greenhouse pot test; assay type: in vivo, Zea mays; settings: one-leaf stage, rated visually after about 3 weeks vs untreated controls
# Outline: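 Visual % activity scored roughly 3 weeks post-spray against untreated plants, where 100% means death and 0% equals control. Plants were treated at the one-leaf stage, 2 to 3 weeks after sowing in sandy loam, at 20 to 320 g/ha.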
# [15] = 504 h, 320 g/ha, read-out: Post-emergence effect against KCHSC in %
# [16] = 320 g/ha, visual rating about 3 weeks after treatment
# [17] = Setaria viridis, 504 h, 320 g/ha, read-out: Post-emergence effect against SETVI in %
# [18] = Fallopia convolvulus, 504 h, 320 g/ha, read-out: Post-emergence effect against POLCO in %
# [19] = 504 h, read-out: Post-emergence effect against KCHSC in %
# [20] = Alopecurus myosuroides, 504 h, 320 g/ha, visual rating about 3 weeks after treatment, read-out: Post-emergence effect against ALOMY
# [21] = Echinochloa crus-galli, 504 h, 80 g/ha
# [22] = Echinochloa crus-galli, 504 h, 320 g/ha
# [23] = Ipomoea purpurea, 504 h, 80 g/ha, read-out: Post-emergence effect against PHBPU in %
# [24] = Ipomoea purpurea, 504 h, 320 g/ha, read-out: Post-emergence effect against PHBPU in %
# [25] = Abutilon theophrasti, 504 h, 80 g/ha, read-out: Post-emergence effect against ABUTH
# [26] = Abutilon theophrasti, 504 h, 320 g/ha, read-out: Post-emergence effect against ABUTH
structure (smiles),measurement,setting,value
COC(=O)C(OC)Oc1nn(-c2cc(F)ccc2F)c(-c2cncc(F)c2)c1C1CC1 (stereo not shown) [Example I-112],Post-emergence effect against VERPE in %,[1]; 20 g/ha,80%
same,Post-emergence effect against VERPE in %,[1]; 80 g/ha,80%
same,Post-emergence effect against VERPE in %,[1]; 320 g/ha,80%
same,Post-emergence effect against SETVI in %,[2]; 80 g/ha,80%
same,Post-emergence effect against SETVI in %,[2]; 320 g/ha,80%
same,Post-emergence effect against POLCO in %,[3]; 80 g/ha,80%
same,Post-emergence effect against POLCO in %,[3]; 320 g/ha,80%
same,Post-emergence effect against VIOTR in %,[4]; 80 g/ha,80%
same,Post-emergence effect against VIOTR in %,[4]; 320 g/ha,80%
same,pest or weed control at 20 g/ha,[4],80%
same,Post-emergence effect against LOLRI in %,[5]; 80 g/ha,90%
same,Post-emergence effect against LOLRI in %,[5]; 320 g/ha,90%
same,pest or weed control at 320 g/ha,[6]; [15],80%
same,Post-emergence effect at 20 g/ha against ALOMY in %,"[7]; 20 g/ha, one-leaf stage, rated visually after about 3 weeks vs untreated controls",80%
same,Post-emergence effect against ALOMY,"[7]; 80 g/ha, visual rating about 3 weeks after treatment",90%
same,Post-emergence effect against ALOMY,[7]; [16],90%
same,Post-emergence effect against ECHCG,"[8]; 20 g/ha, visual rating about 3 weeks after treatment",90%
same,Post-emergence effect against ECHCG in %,[8]; 80 g/ha,90%
same,Post-emergence effect against ECHCG in %,[8]; 320 g/ha,90%
same,Post-emergence effect against AVEFA,[9]; 80 g/ha,90%
same,Post-emergence effect against AVEFA,[9]; 320 g/ha,90%
same,pest or weed control at 20 g/ha,[9],90%
same,Post-emergence effect against DIGSA,[10],80%
same,Post-emergence effect against PHBPU in %,[11]; 20 g/ha,90%
same,Post-emergence effect against PHBPU in %,[11]; 80 g/ha,90%
same,Post-emergence effect against PHBPU in %,[11]; 320 g/ha,90%
same,Post-emergence effect against ABUTH,[12]; 80 g/ha,80%
same,Post-emergence effect against ABUTH,[12]; 320 g/ha,80%
same,pest or weed control at 20 g/ha,"[12]; Abutilon theophrasti, 504 h, 20 g/ha, read-out: Post-emergence effect against ABUTH",80%
same,Post-emergence effect against MATIN in %,[13]; 20 g/ha,80%
same,Post-emergence effect against MATIN in %,[13]; 80 g/ha,80%
same,Post-emergence effect against MATIN in %,[13]; 320 g/ha,80%
COC(=O)C(OC)Oc1nn(-c2ncccc2F)c(-c2cncc(F)c2)c1Br (stereo not shown) [Example I-91],pest or weed control at 80 g/ha,[1]; 80 g/ha,80%
same,pest or weed control at 320 g/ha,[1]; 320 g/ha,80%
same,pest or weed control at 20 g/ha,"[2]; Setaria viridis, 504 h, 20 g/ha, read-out: Post-emergence effect against SETVI in %",80%
same,pest or weed control at 80 g/ha,"[2]; Setaria viridis, 504 h, 80 g/ha, read-out: Post-emergence effect against SETVI in %",80%
same,pest or weed control at 320 g/ha,[2]; [17],80%
same,pest or weed control at 320 g/ha,[3]; [18],80%
same,pest or weed control at 20 g/ha,[4],80%
same,pest or weed control at 80 g/ha,[4]; 80 g/ha,80%
same,pest or weed control at 320 g/ha,[4]; 320 g/ha,80%
same,pest or weed control at 80 g/ha,[5]; 80 g/ha,90%
same,pest or weed control at 320 g/ha,[5]; 320 g/ha,90%
same,pest or weed control at 20 g/ha,"[6]; 504 h, 20 g/ha, read-out: Post-emergence effect against KCHSC in %",80%
same,pest or weed control at 80 g/ha,[6]; [19],80%
same,pest or weed control at 320 g/ha,[6]; [15],90%
same,pest or weed control at 320 g/ha,[7]; [20],80%
same,pest or weed control at 20 g/ha,"[8]; Echinochloa crus-galli, 504 h, 20 g/ha, visual rating about 3 weeks after treatment, read-out: Post-emergence effect against ECHCG",80%
same,pest or weed control at 80 g/ha,[8]; [21],80%
same,pest or weed control at 320 g/ha,[8]; [22],90%
same,pest or weed control at 80 g/ha,[9]; 80 g/ha,90%
same,pest or weed control at 320 g/ha,[9]; 320 g/ha,90%
same,pest or weed control at 320 g/ha,[10],90%
same,pest or weed control at 20 g/ha,"[11]; Ipomoea purpurea, 504 h, 20 g/ha, read-out: Post-emergence effect against PHBPU in %",80%
same,pest or weed control at 80 g/ha,[11]; [23],80%
same,pest or weed control at 320 g/ha,[11]; [24],80%
same,pest or weed control at 80 g/ha,[12]; [25],80%
same,pest or weed control at 320 g/ha,[12]; [26],80%
same,pest or weed control at 80 g/ha,"[13]; Tripleurospermum inodorum, 504 h, 80 g/ha, read-out: Post-emergence effect against MATIN in %",80%
same,pest or weed control at 320 g/ha,"[13]; Tripleurospermum inodorum, 504 h, 320 g/ha, read-out: Post-emergence effect against MATIN in %",80%
CCOC(=O)C(OC)Oc1nn(-c2ncccc2F)c(-c2ccc(F)nc2)c1C1CC1 (stereo not shown) [Example I-58],pest or weed control at 320 g/ha,[1]; 320 g/ha,80%
same,pest or weed control at 320 g/ha,[2]; [17],90%
same,pest or weed control at 80 g/ha,"[3]; Fallopia convolvulus, 504 h, 80 g/ha, read-out: Post-emergence effect against POLCO in %",80%
same,pest or weed control at 320 g/ha,[3]; [18],80%
same,pest or weed control at 80 g/ha,[4]; 80 g/ha,80%
same,pest or weed control at 320 g/ha,[4]; 320 g/ha,80%
same,pest or weed control at 80 g/ha,[5]; 80 g/ha,90%
same,pest or weed control at 320 g/ha,[5]; 320 g/ha,90%
same,plant injury at 20 g/ha,"[14]; Zea mays, 504 h, 20 g/ha, read-out: Post-emergence effect at 20 g/ha against ZEAMX in %",0%
same,plant injury at 80 g/ha,"[14]; Zea mays, 504 h, 80 g/ha, read-out: Post-emergence effect at 80 g/ha against ZEAMX in %",10%
same,pest or weed control at 80 g/ha,[6]; [19],90%
same,pest or weed control at 320 g/ha,[6]; [15],90%
same,pest or weed control at 320 g/ha,[7]; [20],90%
same,pest or weed control at 80 g/ha,[8]; [21],90%
same,pest or weed control at 320 g/ha,[8]; [22],90%
same,pest or weed control at 20 g/ha,[9],80%
same,pest or weed control at 80 g/ha,[9]; 80 g/ha,80%
same,pest or weed control at 320 g/ha,[9]; 320 g/ha,90%
same,pest or weed control at 320 g/ha,[10],80%
same,pest or weed control at 80 g/ha,[11]; [23],80%
same,pest or weed control at 320 g/ha,[11]; [24],90%
same,pest or weed control at 80 g/ha,[12]; [25],80%
same,pest or weed control at 320 g/ha,[12]; [26],80%
COC(=O)C(OC)Oc1nn(-c2ncccc2F)c(-c2ccc(F)nc2)c1C1CC1 (stereo not shown) [Example I-108],Post-emergence effect against VERPE in %,[1]; 320 g/ha,80%
same,pest or weed control at 80 g/ha,[1]; 80 g/ha,80%
same,Post-emergence effect against SETVI in %,[2]; 320 g/ha,90%
same,Post-emergence effect against POLCO in %,[3]; 320 g/ha,80%
same,Post-emergence effect against VIOTR in %,[4]; 80 g/ha,90%
same,Post-emergence effect against VIOTR in %,[4]; 320 g/ha,90%
same,Post-emergence effect against LOLRI in %,[5]; 320 g/ha,90%
same,Post-emergence effect at 20 g/ha against ZEAMX in %,[14]; 20 g/ha,0%
same,Post-emergence effect at 80 g/ha against ZEAMX in %,[14]; 80 g/ha,0%
same,plant injury at 320 g/ha,"[14]; Zea mays, 504 h, 320 g/ha, read-out: Post-emergence effect at 320 g/ha against ZEAMX in %",0%
same,Post-emergence effect against KCHSC in %,[6]; 320 g/ha,90%
same,pest or weed control at 80 g/ha,[6]; [19],90%
same,Post-emergence effect against ALOMY,[7]; [16],100%
same,pest or weed control at 80 g/ha,"[7]; Alopecurus myosuroides, 504 h, 80 g/ha, visual rating about 3 weeks after treatment, read-out: Post-emergence effect against ALOMY",90%
same,Post-emergence effect against ECHCG in %,[8]; 80 g/ha,90%
same,Post-emergence effect against ECHCG in %,[8]; 320 g/ha,90%
same,Post-emergence effect against AVEFA,[9]; 80 g/ha,90%
same,Post-emergence effect against AVEFA,[9]; 320 g/ha,90%
same,Post-emergence effect against DIGSA,[10],90%
same,Post-emergence effect against PHBPU in %,[11]; 80 g/ha,80%
same,Post-emergence effect against PHBPU in %,[11]; 320 g/ha,90%
same,Post-emergence effect against ABUTH,[12]; 80 g/ha,80%
same,Post-emergence effect against ABUTH,[12]; 320 g/ha,90%
